{
  "source": "patent USRE38994E1",
  "about": "“Pyropheophorbides conjugates and their use in photodynamic therapy” (Health Research, Inc., priority 1988, dated 2006)",
  "key": {"[1]": {"test_system": "SMT-F tumor", "experiment": "In vivo tumor photosensitizing activity (photodynamic tumor treatment)", "design": "species or system DBA/2 mice", "conditions": "for Tumor Response Day 1 (Number of non-palpable tumors/Number treated tumors) / Tumor Response Day 7 (Number of non-palpable tumors/Number treated tumors) / Tumor Response Day 30 (Number of non-palpable tumors/Number treated tumors) / Tumor Response Day 90 (Number of non-palpable tumors/Number treated tumors): time interval 24 hours, 135 J/cm^2 laser at 75 mW/cm^2", "description": "When 2-[1-(O-hexyl)ethyl]devinyl pyropheophorbide-a - structure (5) in Scheme 1: S—RO—where R═(CH2)5CH3 and m═H, (formula IIa) synthesized as indicated (5.0 mg) is dissolved in Tween 80 (0.1 ml) and mixed with 10 ml Hanks Balanced Salt Solution (HBSS), a solution of approximately 0.5 mg/ml in […] is produced after filtration through a 0.22 AM Millipore filter. […] […] Alternately, a Xenon arc lamp filtered to emit a broader band width near 670 nm and approximately 283 Joules/cm^2 can be used.\nThis progresses to frank tumor necrosis over the next few days. […] At 30 days post treatment, six of the 10 tumors remain non-palpable, and one remains tumor-free to 90 days post treatment."}, "[2]": {"experiment": "Normal foot response / skin clearance after light exposure", "format": "in vivo, albino Swiss mice (HaICR)", "conditions": "for Normal Foot Response Maximum Reaction (score): same light conditions as tumor treatment, score 0.3 - slight edema, 0 - no reaction", "description": "Six albino Swiss mice (HaICR) are injected intravenously with a dose of 0.1 mg/kg body weight of the compound of formula IIa prepared as in Example 1. After approximately 24 h, the hind foot of the animal is exposed to the same dose of either laser light at 660-670 nm (135 Joules/cm^2) or the Xenon arc lamp (283 Joules/cm^2) as above. The reaction of the foot is scored for damage over the next few days to determine the maximum effect, which in this case is a value 0.3 equivalent to slight edema. If the internal between the injection and light treatment is extended to approximately 48 h, the foot reaction is zero (no damage incurred), indicating either clearance or metabolism of the sensitizer."}, "[3]": {"test_system": "tumor", "experiment": "in vivo tumoricidal activity assay", "conditions": "injected at a dose of 5 mg/kg"}, "[4]": {"conditions": "injected dose 0.1 mg/kg, wavelength 659"}, "[5]": {"conditions": "injected dose 0.3 mg/kg, wavelength 659"}, "[6]": {"conditions": "injected dose 0.3 mg/kg, wavelength 665"}, "[7]": {"conditions": "injected dose 0.3 mg/kg, wavelength 670"}, "[8]": {"conditions": "injected dose 0.3 mg/kg, wavelength 680"}, "[9]": {"conditions": "ten mice, 0.3 mg/kg intravenously, approx. 24 h later laser light at 660-670 nm, 135 Joules/cm^2"}, "[10]": {"conditions": "injected dose 0.1 mg/kg, wavelength 660"}, "[11]": {"conditions": "injected dose 0.3 mg/kg, wavelength 660"}},
  "data": [
    {"smiles": "CCCCCCOC(C)c1c(C)c2cc3nc(c4c5[nH]c(cc6nc(cc1[nH]2)C(C)=C6CC)c(C)c5C(=O)C4)[C@@H](CCC(=O)O)[C@@H]3C", "note": "(stereo partly shown) [Formula II R5 = —O—(CH2)5CH3 R7 = —CO2H, 2-{1(O-hexyl)ethyl}devinyl pyropheophorbide-a]", "values": [
      {"measurement": "Tumor Response Day 1 (Number of non-palpable tumors/Number treated tumors)", "setting": "[1]; injected dose 0.05 mg/kg, wavelength 659", "result": "0/40"},
      {"measurement": "Tumor Response Day 1 (Number of non-palpable tumors/Number treated tumors)", "setting": "[1]; [4]", "result": "6/6"},
      {"measurement": "Tumor Response Day 7 (Number of non-palpable tumors/Number treated tumors)", "setting": "[1]; [4]", "result": "6/6"},
      {"measurement": "Tumor Response Day 30 (Number of non-palpable tumors/Number treated tumors)", "setting": "[1]; [4]", "result": "1/6"},
      {"measurement": "Tumor Response Day 90 (Number of non-palpable tumors/Number treated tumors)", "setting": "[1]; [4]", "result": "1/6"},
      {"measurement": "Tumor Response Day 1 (Number of non-palpable tumors/Number treated tumors)", "setting": "[1]; injected dose 0.3 mg/kg, wavelength 655", "result": "0/10"},
      {"measurement": "Tumor Response Day 1 (Number of non-palpable tumors/Number treated tumors)", "setting": "[1]; [5]", "result": "5/5"},
      {"measurement": "Tumor Response Day 7 (Number of non-palpable tumors/Number treated tumors)", "setting": "[1]; [5]", "result": "4/5"},
      {"measurement": "Tumor Response Day 30 (Number of non-palpable tumors/Number treated tumors)", "setting": "[1]; [5]", "result": "0/5"},
      {"measurement": "Tumor Response Day 1 (Number of non-palpable tumors/Number treated tumors)", "setting": "[1]; [6]", "result": "10/10"},
      {"measurement": "Tumor Response Day 7 (Number of non-palpable tumors/Number treated tumors)", "setting": "[1]; [6]", "result": "10/10"},
      {"measurement": "Tumor Response Day 30 (Number of non-palpable tumors/Number treated tumors)", "setting": "[1]; [6]", "result": "2/10"},
      {"measurement": "Tumor Response Day 90 (Number of non-palpable tumors/Number treated tumors)", "setting": "[1]; [6]", "result": "0/10"},
      {"measurement": "Tumor Response Day 1 (Number of non-palpable tumors/Number treated tumors)", "setting": "[1]; [7]", "result": "10/10"},
      {"measurement": "Tumor Response Day 7 (Number of non-palpable tumors/Number treated tumors)", "setting": "[1]; [7]", "result": "10/10"},
      {"measurement": "Tumor Response Day 30 (Number of non-palpable tumors/Number treated tumors)", "setting": "[1]; [7]", "result": "6/10"},
      {"measurement": "Tumor Response Day 90 (Number of non-palpable tumors/Number treated tumors)", "setting": "[1]; [7]", "result": "1/10"},
      {"measurement": "Tumor Response Day 1 (Number of non-palpable tumors/Number treated tumors)", "setting": "[1]; [8]", "result": "1/10"},
      {"measurement": "Tumor Response Day 7 (Number of non-palpable tumors/Number treated tumors)", "setting": "[1]; [8]", "result": "0/10"},
      {"measurement": "Tumor state at 7 days post treatment", "setting": "[1]; [9]", "result": "all tumors remain non-palpable and necrotic"},
      {"measurement": "Tumor state the day after light treatment", "setting": "[1]; [9]", "result": "all the tumors are seen to be flat (non-palpable)"},
      {"measurement": "Tumor-free to 90 days post treatment (number of the 10)", "setting": "[1]; [9]", "result": "one"},
      {"measurement": "Tumors remaining non-palpable at 30 days post treatment", "setting": "[1]; [9]", "result": "six of the 10"},
      {"measurement": "Foot reaction, maximum effect (damage score)", "setting": "[2]; 0.1 mg/kg intravenously, hind foot exposed after approx. 24 h, 660-670 nm laser 135 Joules/cm^2 or Xenon arc lamp 283 Joules/cm^2, 0.3 equivalent to slight edema", "result": 0.3},
      {"measurement": "Foot reaction (damage score)", "setting": "[2]; 0.1 mg/kg intravenously, interval between injection and light treatment approx. 48 h, zero = no damage incurred", "result": "zero"},
      {"measurement": "Normal Foot Response Maximum Reaction (score)", "setting": "[2]; table row of injected dose 0.1 mg/kg, time interval 24 hours", "result": 0.3},
      {"measurement": "Normal Foot Response Maximum Reaction (score)", "setting": "[2]; table row of injected dose 0.3 mg/kg, time interval 48-72 hours", "result": 0}
    ]},
    {"smiles": "C=Cc1c(C)c2cc3nc(c4c5[nH]c(cc6nc(cc1[nH]2)C(C)=C6CC)c(C)c5C(=O)[C@@H]4C(=O)OC)[C@@H](CCC(=O)OC)[C@@H]3C", "note": "[Methyl pheophorbide-a]", "values": [
      {"measurement": "in vivo tumoricidal activity", "setting": "[3]", "result": "inactive"}
    ]},
    {"smiles": "CCCCCCOC(C)c1c(C)c2cc3nc(c4c5[nH]c(cc6nc(cc1[nH]2)C(C)=C6CC)c(C)c5C(=O)C4)[C@@H](CCC(=O)OC)[C@@H]3C", "note": "(stereo partly shown) [Methyl-2-{1(O-hexyl)ethyl}-devinyl pyropheophorbide]", "values": [
      {"measurement": "Tumor Response Day 1 (Number of non-palpable tumors/Number treated tumors)", "setting": "[1]; [10]", "result": "5/5"},
      {"measurement": "Tumor Response Day 30 (Number of non-palpable tumors/Number treated tumors)", "setting": "[1]; [10]", "result": "0/5"},
      {"measurement": "Tumor Response Day 1 (Number of non-palpable tumors/Number treated tumors)", "setting": "[1]; [11]", "result": "6/6"},
      {"measurement": "Tumor Response Day 7 (Number of non-palpable tumors/Number treated tumors)", "setting": "[1]; [11]", "result": "6/6"},
      {"measurement": "Tumor Response Day 30 (Number of non-palpable tumors/Number treated tumors)", "setting": "[1]; [11]", "result": "3/6"},
      {"measurement": "Tumor Response Day 90 (Number of non-palpable tumors/Number treated tumors)", "setting": "[1]; [11]", "result": "3/6"}
    ]}
  ]
}
